The target in one test is T1, Human CB2 Receptor (Homo sapiens, UniProt P34972).
T1 construct: host or cells: Sf9 or HEK-293 cells (membranes)
Briefly: [35S]GTPγS-binding assay, hCB2. In kind it is biochemical. As to conditions: GTPγS, Human CB2 Receptor, NB = no binding. On the technique in general: Binding of GTPγS marks nucleotide exchange on a G protein.

Test [1] has as its system PLP induced remitting-relapsing EAE. Nature of the test: PLP induced remitting-relapsing EAE. The class given is in vivo, SJL female mice. Particulars: for average clinical score on the first peak of the disease: vehicle 3.63±0.25; for average clinical score at the second peak of the disease (first relapse): vehicle 3.14±0.48; for reduction in average clinical score at peak as compared to vehicle: first peak; for AUC of clinical score: over 23 days, vehicle 54.13±9.58; for reduction in average clinical score as compared to vehicle: second peak.

The target in another test is T2, Human CB1 Receptor (Homo sapiens, UniProt P21554).
T2 construct: expressed in transfected cells; host or cells: HEK-293 cells (membranes)
Nature of the test: [35S]GTPγS-binding assay, hCB1. The class given is biochemical. Particulars: NB = no binding.

The subject of test [2] is visceral pain writhing responses. Briefly: Tolerance: repeated administration in the model of Visceral Pain. In kind it is in vivo, mice. As to conditions: tested day 11 at 2 mg/kg i.v. The procedure:
Male ICR mice (average body weight 25 g, Harlan, Israel) were pretreated by i.v. injection at volume dose of 5 ml/kg of vehicle, control and test compounds at various doses. Other routes of administration were tested for selected compounds including i.m. or s.c. injections at volume dose of 2.5 ml/kg and p.o. gavage at volume dose of 5 ml/kg. Compounds were dissolved in CREMOPHOR®:Ethanol and diluted 1:20 in saline prior to injection or gavage. Compounds administered i.v. were injected fifteen minutes before pain induction, whereas compounds administered i.m., s.c. or p.o. were supplied thirty minutes before pain induction, unless otherwise indicated. Each treatment group, except for controls comprising at least 30 animals, was composed of at least 6 animals. Fifteen or thirty minutes after drug administration, depending on the route of administration, the mice were injected i.p. with 10 ml/kg of 0.6% acetic acid and the number of visceral pain related behaviors (writhing movements globally defined as WR, i.e. stretching, contractions of the abdomen accompanied by an elongation of the body and extension of the hind limbs) was counted over a period of 5 minutes, starting 5 minutes after the acetic acid administration. These visceral pain related behaviors were globally defined as writhing responses (WR). The results are expressed as mean number of writhing responses ±SEM. Data were analyzed using analysis of variance (ANOVA) followed by post-hoc Fisher test.
Briefly compounds of the invention were administered at 10 mg/kg i.p. daily for 10 days and their analgesic activity was tested on day 11 as described in Example 17 (namely at 2 mg/kg i.v.). […] Each treatment group comprised 10 animals.

T1 sequence (P34972 whole entry): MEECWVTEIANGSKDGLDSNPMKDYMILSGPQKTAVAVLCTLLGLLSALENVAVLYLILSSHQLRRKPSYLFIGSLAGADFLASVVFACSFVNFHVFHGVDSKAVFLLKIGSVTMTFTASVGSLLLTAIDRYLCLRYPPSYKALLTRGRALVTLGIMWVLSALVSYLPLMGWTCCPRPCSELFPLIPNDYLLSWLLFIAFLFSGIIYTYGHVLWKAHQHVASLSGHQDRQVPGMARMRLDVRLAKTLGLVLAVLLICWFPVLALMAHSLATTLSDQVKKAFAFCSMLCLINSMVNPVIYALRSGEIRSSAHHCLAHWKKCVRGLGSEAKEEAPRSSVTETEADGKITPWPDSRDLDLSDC
T2 sequence (P21554 whole entry): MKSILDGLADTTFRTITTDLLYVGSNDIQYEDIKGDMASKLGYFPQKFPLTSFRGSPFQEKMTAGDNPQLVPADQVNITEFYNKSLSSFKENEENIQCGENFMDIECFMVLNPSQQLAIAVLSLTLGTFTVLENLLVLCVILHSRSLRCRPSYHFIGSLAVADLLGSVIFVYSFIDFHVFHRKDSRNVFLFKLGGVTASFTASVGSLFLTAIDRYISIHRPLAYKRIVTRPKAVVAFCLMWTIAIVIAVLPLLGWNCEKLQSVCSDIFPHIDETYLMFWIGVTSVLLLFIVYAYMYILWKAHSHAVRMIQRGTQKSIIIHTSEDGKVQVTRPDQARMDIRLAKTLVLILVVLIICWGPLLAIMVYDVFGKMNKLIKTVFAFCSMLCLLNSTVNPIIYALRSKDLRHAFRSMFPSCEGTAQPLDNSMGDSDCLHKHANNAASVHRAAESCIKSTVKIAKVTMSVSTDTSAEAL

On to `CCCCCCC(C)(C)c1cc(O)c2c(c1)OC1C(O)CCCCC21` (stereo not drawn) [Compound C7S-2, 2-(1,1-dimethylheptyl)-5,6,7,8,9,9a-hexahydro-4bH-10-oxa-benzo[α]azulen-4,9-diol], for which the values for the EC50 at Human CB2 Receptor and on Human CB1 Receptor were 227 nM and 359 nM, respectively. Besides, the Emax (in general, the greatest response seen or fitted, relative to the assay's reference) amounted to 26% on Human CB2 Receptor (upper plateau of curve) and 50% at Human CB1 Receptor (upper plateau of curve). Further, the “average clinical score on the first peak of the disease” value in test [1] (5 mg/kg p.o. daily for 10 days) amounted to 2.78±0.15; in test [1] (10 mg/kg i.p. daily for 10 days), 2.43±0.26. Moreover, the entries for the “average clinical score at the second peak of the disease (first relapse)” value in test [1] (5 mg/kg p.o.) and in test [1] (10 mg/kg i.p.) were 1.25±0.41 and 0.57±0.11, respectively. The entries for the “reduction in average clinical score at peak as compared to vehicle” value in test [1] (5 mg/kg p.o.) and in test [1] (10 mg/kg i.p.) were 23% and 33%, respectively. Besides, the entries for the “reduction of overall severity of the disease (expressed in AUC)” value in test [1] (i.p.) and in test [1] (p.o.) were 64% and 48%, respectively. The “AUC of clinical score” value in test [1] (5 mg/kg p.o.) amounted to 28.13±5.74; in test [1] (10 mg/kg i.p.), 19.43±2.51. Also, the “reduction in average clinical score as compared to vehicle” value in test [1] (i.p.) amounted to 82%; in test [1] (p.o.), 60%. Moreover, the “writhing responses on day 11” value in test [2] (repeated administration daily for 10 days (10 mg/kg i.p.), vehicle 29.75±1.09) is reported as 2.45±1.49. In addition, the “reduction in pain response after repeated administration” value in test [2] (repeated administration daily for 10 days) is listed as 92%.

The record behind these values is patent US20090054376A1, “BENZOFURAN DERIVATIVES WITH THERAPEUTIC ACTIVITIES” (Pharmos Corporation, priority 2005, published 2009).
